In article PMC5608406, “In vivo activation of latent HIV with a synthetic bryostatin analog effects both latent cell "kick" and "kill" in strategy for virus eradication” (PLoS Pathogens, 2017):

Experiments:
[1] = biological target: T1, PKC alpha (Homo sapiens, UniProt P17252); assay: PKC binding assay, competition with 3H-PDBu
T1 construct: purchased Invitrogen
Procedure: (§1) This entails a glass-fiber filtration method to determine bound radioligand.
(§2) To a polypropylene vial was added Tris-HCl (pH 7.4, 1 M, 1 mL), KCl (1 M, 2 mL), CaCl2 (0.1 M, 30 μL), and bovine serum albumin (40 mg, from Sigma). This mixture was diluted to 20 mL with deionized H2O, and mixed gently. The buffer was stored on ice until use. The final concentration of these constituents are shown in S2 Table.
(§3) For every 2 assays, 3.5 mg phosphatidylserine (Avanti Polar Lipids, porcine, obtained as a solution in CHCl3) was isolated by removing chloroform under a stream of nitrogen followed by reduced pressure. The solid PS was suspended as vesicles in binding assay buffer (3.5 mL) by sonicating (Branson Sonifier 250, power = 2, 50% duty cycle) six times for 30 s with a 30 s rest between sonications. The resulting cloudy mixture (1 mg/mL PS) was stored on ice until use.
(§4) Assay Protein Kinase C (PKC) was prepared by dissolving a 4 μg aliquot of the indicated recombinant human PKC isoform (Invitrogen) into 11.6 mL of binding assay buffer. The KD values for all 7 isoforms were determined experimentally. The diluted PKC was stored on ice for immediate use. This amount is sufficient for 2 assays with room for error.
(§5) This 500 nM stock solution was further diluted in DMSO to 30 nM for use in assays. The 500 nM and 30 nM stock solutions were stored frozen in DMSO at −20°C until use. […] Seven analog concentrations were used to define the inhibition curve.
(§6) The resulting solution was vortexed to mix and stored on ice.
(§7) Triplicate data points were obtained for each analog concentration. For each data point, 280 μL of Master Mix Solution and test compound at the given concentration (20 μL) were added to a polypropylene tube. […] Counts per minute (cpm) were averaged for each triplicate dilution.

[2] = biological target: T2, PKC beta I (Homo sapiens, UniProt P05771); assay: PKC binding assay, competition with 3H-PDBu
T2 construct: purchased Invitrogen
Procedure: as §1, §2, §3, §4, §5, §6, §7

[3] = biological target: T3, PKC delta (Homo sapiens, UniProt Q05655); assay: PKC binding assay, competition with 3H-PDBu
T3 construct: purchased Invitrogen
Procedure: as §1, §2, §3, §4, §5, §6, §7

[4] = biological target: T4, PKC eta (Homo sapiens, UniProt P24723); assay: PKC binding assay, competition with 3H-PDBu
T4 construct: purchased Invitrogen
Procedure: as §1, §2, §3, §4, §5, §6, §7

[5] = biological target: T5, PKC gamma (Homo sapiens, UniProt P05129); assay: PKC binding assay, competition with 3H-PDBu
T5 construct: purchased Invitrogen
Procedure: as §1, §2, §3, §4, §5, §6, §7

[6] = biological target: T6, PKC theta (Homo sapiens, UniProt Q04759); assay: PKC binding assay, competition with 3H-PDBu
T6 construct: purchased Invitrogen
Procedure: as §1, §2, §3, §4, §5, §6, §7

[7] = system: murine splenocytes; assay: In vivo bioactivity (CD69/CD25 in splenocytes) in C57/bl6 mice
Procedure: C57/bl6 mice were obtained from the UCLA Department of Radiation Oncology. Compounds were suspended in DMSO and then further diluted in RF10 media to produce a final volume of 500 μL (containing a maximum 4% DMSO). These 500 μL volumes were administered to mice by intraperitoneal injection. Mice were monitored for acute toxicities and then sacrificed at the indicated times. Spleens were removed and disaggregated using a steel mesh, and then filtered through a 40 μm filter to produce a single-cell suspension. The resultant splenocytes were then stained for flow cytometry to analyze surface expression of relevant markers.
During standard flow cytometry staining, samples of 10^5 cells were suspended in 50 μL of a 1:1 dilution of phosphate buffered saline (PBS):Human AB serum (Sigma). Staining of C57/bl6 mouse splenocytes was performed by adding the following anti-mouse fluorescent conjugated antibodies: CD3-Fluorescein isothiocyanate (FITC, eBioscience 11-0032-82); CD69-Phycoerythrin (PE, eBioscience 12-0691-83); and CD4-Allophycocyanin (APC, eBioscience 17-0041-83). In some experiments CD4-APC was replaced with CD25-APC (eBioscience 17-0251-82) and CD4-Phycoerythrin Cyanin 7 (PC7, eBioscience 25-0041-82). For humanized mouse studies, PBMC and splenocytes from BLT mice were stained with anti-mouse CD45-Alexa 700 (Biolegend 103128) and the following anti-human antibodies: CD45-e450 (eBioscience 48-0459-42); CD3-APC-780 (eBioscience; 47-0038-42); CD4-V500 (BD biosciences; 560768); CD8-Peridinin chlorophyll protein (PerCP)-710 (eBioscience 46-0087-42); CD25-PE (Beckman IM0479U); CD69-APC (Biolegend 310910); CD14-PE-Cy7 (Biolegend 325618). Cells were separately stained for anti-human CD45 e450- (eBioscience 48-0459-42) and anti-HA-Biotin PE (Roche 12158167001) followed by a secondary Streptavidin, R-Phycoerythrin Conjugate (Invitrogen s866) stain. This two-step stain was performed by incubating 1-2x10^6 cells at 4°C for 20–30 min, washing with 2% FBS in PBS, then adding the secondary stain, incubating again at 4°C for 20–30 min, and washing with 2% FBS in PBS before fixation with 2% paraformaldehyde. In some experiments, cell death was also evaluated by GHOST Red 780 (Tonbo Biosciences 13–0865) or Zombie Yellow (Biolegend 423104) stains. For this procedure, 10^6 cells were suspended in 100 μL PBS, and then the Zombie yellow and GHOST Red 780 dyes added. Cells were incubated for 20 min at room temperature in the dark and then washed twice with 2% FBS in PBS. Cells were then fixed with 2% paraformaldehyde and incubated for 20 min in the dark. In some experiments cells were then washed with 2% FBS in PBS, resuspended in 1:1 PBS:Human AB serum and then stained for human CD45 and HA, CD3-PE-Cy5 (Biolegend 300310), CD4-ECD (Beckman 6604727), CD8 Per-CO710 (eBioscience 46-0087-42) and CD3-APC (Cell signaling 9602S) as described above.

[8] = system: HIV strain NL-HA; assay type: in vivo, humanized BLT mice; settings: IP injection while maintaining ART, overnight incubation

T6 sequence (Q04759 whole entry): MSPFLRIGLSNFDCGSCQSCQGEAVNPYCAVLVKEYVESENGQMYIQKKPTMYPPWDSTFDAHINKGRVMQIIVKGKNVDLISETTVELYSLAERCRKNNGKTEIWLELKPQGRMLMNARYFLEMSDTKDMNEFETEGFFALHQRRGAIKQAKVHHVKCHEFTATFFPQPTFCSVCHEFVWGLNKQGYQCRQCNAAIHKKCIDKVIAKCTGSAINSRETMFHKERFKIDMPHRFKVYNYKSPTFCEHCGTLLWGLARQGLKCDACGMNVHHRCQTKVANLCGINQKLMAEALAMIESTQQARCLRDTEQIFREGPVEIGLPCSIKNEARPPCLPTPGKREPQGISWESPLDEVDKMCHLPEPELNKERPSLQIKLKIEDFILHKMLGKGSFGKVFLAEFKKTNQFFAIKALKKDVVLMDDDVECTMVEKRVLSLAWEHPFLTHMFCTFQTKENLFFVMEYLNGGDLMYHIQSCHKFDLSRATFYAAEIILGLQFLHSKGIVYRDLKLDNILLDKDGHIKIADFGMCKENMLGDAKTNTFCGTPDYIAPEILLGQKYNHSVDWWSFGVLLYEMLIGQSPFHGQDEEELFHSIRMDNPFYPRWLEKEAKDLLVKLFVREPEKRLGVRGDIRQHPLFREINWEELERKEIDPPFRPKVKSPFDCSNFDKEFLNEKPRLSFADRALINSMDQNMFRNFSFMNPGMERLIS
T4 sequence (P24723 whole entry): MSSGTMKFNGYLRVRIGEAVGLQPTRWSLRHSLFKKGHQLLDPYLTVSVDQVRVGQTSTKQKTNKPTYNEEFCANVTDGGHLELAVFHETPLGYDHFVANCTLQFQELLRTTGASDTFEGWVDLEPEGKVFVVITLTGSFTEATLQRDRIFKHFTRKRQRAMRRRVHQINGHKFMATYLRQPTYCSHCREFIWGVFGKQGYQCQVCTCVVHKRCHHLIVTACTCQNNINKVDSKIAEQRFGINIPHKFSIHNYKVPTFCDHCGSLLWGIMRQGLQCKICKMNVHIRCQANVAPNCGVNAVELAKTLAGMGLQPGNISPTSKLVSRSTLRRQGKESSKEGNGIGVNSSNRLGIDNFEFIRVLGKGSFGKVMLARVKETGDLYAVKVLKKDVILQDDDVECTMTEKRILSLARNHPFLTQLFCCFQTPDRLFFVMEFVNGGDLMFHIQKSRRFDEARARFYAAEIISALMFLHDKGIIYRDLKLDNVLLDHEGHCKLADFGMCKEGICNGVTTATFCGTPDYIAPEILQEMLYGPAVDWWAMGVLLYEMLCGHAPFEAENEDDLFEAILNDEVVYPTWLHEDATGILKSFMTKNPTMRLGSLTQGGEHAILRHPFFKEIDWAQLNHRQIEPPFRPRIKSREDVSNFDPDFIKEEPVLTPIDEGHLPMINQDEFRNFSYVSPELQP
T2 sequence (P05771 whole entry): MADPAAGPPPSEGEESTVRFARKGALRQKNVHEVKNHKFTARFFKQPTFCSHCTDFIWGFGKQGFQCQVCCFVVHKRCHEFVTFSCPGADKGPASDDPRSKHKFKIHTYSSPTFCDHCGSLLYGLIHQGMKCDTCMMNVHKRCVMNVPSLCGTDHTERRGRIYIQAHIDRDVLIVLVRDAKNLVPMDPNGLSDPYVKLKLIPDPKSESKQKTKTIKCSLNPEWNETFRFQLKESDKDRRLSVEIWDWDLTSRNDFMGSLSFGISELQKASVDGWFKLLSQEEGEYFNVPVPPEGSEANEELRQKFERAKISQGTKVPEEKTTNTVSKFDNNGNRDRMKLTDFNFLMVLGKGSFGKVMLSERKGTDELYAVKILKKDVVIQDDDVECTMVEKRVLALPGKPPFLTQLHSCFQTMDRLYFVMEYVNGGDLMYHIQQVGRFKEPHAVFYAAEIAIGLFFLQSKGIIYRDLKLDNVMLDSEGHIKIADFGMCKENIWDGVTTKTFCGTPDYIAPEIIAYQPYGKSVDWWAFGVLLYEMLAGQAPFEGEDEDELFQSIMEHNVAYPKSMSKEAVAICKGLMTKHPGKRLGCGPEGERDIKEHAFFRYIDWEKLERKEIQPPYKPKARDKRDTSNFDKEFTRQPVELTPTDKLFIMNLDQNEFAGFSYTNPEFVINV
T3 sequence (Q05655 whole entry): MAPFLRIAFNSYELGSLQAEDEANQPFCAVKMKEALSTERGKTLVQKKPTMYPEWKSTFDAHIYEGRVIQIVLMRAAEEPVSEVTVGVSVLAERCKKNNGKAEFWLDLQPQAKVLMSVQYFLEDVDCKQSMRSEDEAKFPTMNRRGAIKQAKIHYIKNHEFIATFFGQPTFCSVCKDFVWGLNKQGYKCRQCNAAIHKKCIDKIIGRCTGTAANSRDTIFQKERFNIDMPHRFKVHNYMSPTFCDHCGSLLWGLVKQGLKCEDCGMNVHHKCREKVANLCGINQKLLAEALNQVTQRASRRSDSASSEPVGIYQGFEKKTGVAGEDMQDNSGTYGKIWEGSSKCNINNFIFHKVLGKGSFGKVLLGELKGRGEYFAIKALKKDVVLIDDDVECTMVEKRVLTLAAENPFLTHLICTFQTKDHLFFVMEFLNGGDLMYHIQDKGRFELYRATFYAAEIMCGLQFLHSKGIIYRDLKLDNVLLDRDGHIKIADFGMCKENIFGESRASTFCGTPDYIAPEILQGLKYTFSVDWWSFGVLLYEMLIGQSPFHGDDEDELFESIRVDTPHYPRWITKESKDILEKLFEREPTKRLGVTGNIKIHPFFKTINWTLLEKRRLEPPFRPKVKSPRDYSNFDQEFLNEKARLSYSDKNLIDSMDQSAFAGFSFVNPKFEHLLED

**Q.** Which Ki [1] does the source give for `C=C1C[C@H]2C[C@]3(O)O[C@H](C[C@@H](O)CC(=O)O[C@@H](CO)C[C@@H]4C/C(=C\C(=O)OC)[C@H](OC(=O)CCCCCCC)[C@@](O)(O4)C(C)(C)/C=C/[C@@H](C1)O2)C[C@H](OC(C)=O)C3(C)C` [SUW133] here?
**A.** The Ki was 1.8 nM.

**Q.** And the Ki [2]?
**A.** The Ki was 6.3 nM.

**Q.** What about the Ki [3] of the same molecule?
**A.** Its Ki is 2 nM.

**Q.** What about the Ki [4] of the same molecule?
**A.** Its Ki is 6.4 nM.

**Q.** And the Ki [5]?
**A.** Its Ki is 5.6 nM.

**Q.** What about the Ki [6] of the same molecule?
**A.** The Ki was 2 nM.

**Q.** And the “CD4+ splenocytes expressing CD69” value ([7]; intraperitoneal injection, 24h post-injection, maximum over ascending doses)?
**A.** Its value is “over 80%”.

**Q.** And the “lowest dose inducing CD69 expression” value ([7]; intraperitoneal injection, C57/bl6 mice)?
**A.** Its value is 1 µg.

**Q.** And the “CD25 expression on CD3+ T cells in spleen” value ([7]; single injection of 10 μg)?
**A.** The value was “remained unchanged”.

**Q.** What about the “CD69 expression on splenocytes, time course” value ([7]; single injection of 10 μg, up to day 9) of the same molecule?
**A.** The value was “transient expression of CD69 on the vast majority of murine splenocytes”.

**Q.** And the “percentage of HA+ (HIV-expressing) cells” value [8]?
**A.** The value was “induced significant numbers of latently-infected cells to express viral proteins”.
